Experiments:
MV4-11 [1] = test: Induction of apoptosis in human MV4-11 cells assessed as necrotic cells at 100 nmol/L incubated for 72 hrs by Annexin V/PI staining based flow cytometry analysis (reference value: 0.46%); type: functional
MV4-11 [2] = test: Induction of apoptosis in human MV4-11 cells assessed as early apoptotic cells at 50 nmol/L incubated for 72 hrs by Annexin V/PI staining based flow cytometry analysis (reference value: 4.17 %); type: functional
MV4-11 [3] = test: Induction of apoptosis in human MV4-11 cells assessed as early apoptotic cells at 100 nmol/L incubated for 72 hrs by Annexin V/PI staining based flow cytometry analysis (reference value: 4.17 %); type: functional
[4] = Toxicity in mouse implanted in human MV4-11 cells assessed as liver damage at 10 to 30 mg/kg, ip administered daily for 17 days by H and E staining based analysis; type: organism-based; settings: in vivo, 408 h, dose 10-30 mg/kg, time 17 day
MV4-11 [5] = test: Antitumor activity against human MV4-11 cells xenografted in mouse assessed as tumor growth inhibition at 20 mg/kg, ip administered daily for 17 days; type: functional; settings: MV4-11, 408 h, time 17 day, read-out: TGI
MV4-11 [6] = test: Antiproliferative activity against human MV4-11 cells assessed as growth inhibition at 2 uM measured after 72 hrs in presence of 0.4 uM of vorinostat by CellTiterGlo assay; type: functional; settings: read-out: GI
MV4-11 [7] = test: Antiproliferative activity against human MV4-11 cells assessed as growth inhibition at 1 uM measured after 72 hrs in presence of 0.1 uM of vorinostat by CellTiterGlo assay; type: functional; settings: read-out: GI
MV4-11 [8] = test: Antiproliferative activity against human MV4-11 cells assessed as growth inhibition at 0.2 uM measured after 72 hrs in presence of 0.1 uM of vorinostat by CellTiterGlo assay; type: functional; settings: read-out: GI
MV4-11 [9] = test: Induction of apoptosis in human MV4-11 cells assessed as viable cells at 400 nM incubated for 72 hrs in presence of vorinostat by Annexin V/PI staining based flow cytometry analysis (reference value: 96.68%); type: functional; settings: read-out: Activity
MV4-11 [10] = test: Antiproliferative activity against human MV4-11 cells assessed as growth inhibition at 0.5 uM measured after 72 hrs in presence of 1 uM of vorinostat by CellTiterGlo assay; type: functional; settings: read-out: GI
MV4-11 [11] = test: Antiproliferative activity against human MV4-11 cells assessed as growth inhibition at 0.1 uM measured after 72 hrs in presence of 0.5 uM of vorinostat by CellTiterGlo assay; type: functional; settings: read-out: GI
MV4-11 [12] = test: Induction of apoptosis in human MV4-11 cells assessed as necrotic cells at 200 nM incubated for 72 hrs in presence of vorinostat by Annexin V/PI staining based flow cytometry analysis (reference value: 2.61%); type: functional
MV4-11 [13] = test: Antiproliferative activity against human MV4-11 cells assessed as growth inhibition at 0.4 uM measured after 72 hrs in presence of 0.1 uM of vorinostat by CellTiterGlo assay; type: functional; settings: read-out: GI
MV4-11 [14] = test: Antiproliferative activity against human MV4-11 cells assessed as growth inhibition at 2 uM measured after 72 hrs in presence of 0.2 uM of vorinostat by CellTiterGlo assay; type: functional; settings: read-out: GI
MV4-11 [15] = test: Antiproliferative activity against human MV4-11 cells assessed as growth inhibition at 2 uM measured after 72 hrs in presence of 0.05 uM of vorinostat by CellTiterGlo assay; type: functional; settings: read-out: GI
MV4-11 [16] = test: Induction of apoptosis in human MV4-11 cells assessed as necrotic cells at 400 nM incubated for 72 hrs in presence of vorinostat by Annexin V/PI staining based flow cytometry analysis (reference value: 2.61%); type: functional
MV4-11 [17] = test: Antiproliferative activity against human MV4-11 cells assessed as growth inhibition at 0.2 uM measured after 72 hrs in presence of 0.4 uM of vorinostat by CellTiterGlo assay; type: functional; settings: read-out: GI
MV4-11 [18] = test: Antiproliferative activity against human MV4-11 cells assessed as growth inhibition at 0.1 uM measured after 72 hrs by CellTiterGlo assay; type: functional; settings: read-out: GI
MV4-11 [19] = test: Antiproliferative activity against human MV4-11 cells assessed as growth inhibition at 0.5 uM measured after 72 hrs in presence of 0.2 uM of vorinostat by CellTiterGlo assay; type: functional; settings: read-out: GI
MV4-11 [20] = test: Antiproliferative activity against human MV4-11 cells assessed as growth inhibition at 0.05 uM measured after 72 hrs in presence of 0.4 uM of vorinostat by CellTiterGlo assay; type: functional; settings: read-out: GI
MV4-11 [21] = test: Induction of apoptosis in human MV4-11 cells assessed as late apoptotic cells at 200 nM incubated for 72 hrs by Annexin V/PI staining based flow cytometry analysis (reference value: 6.42%); type: functional
MV4-11 [22] = test: Induction of apoptosis in human MV4-11 cells assessed as viable cells at 200 nM incubated for 72 hrs in presence of vorinostat by Annexin V/PI staining based flow cytometry analysis (reference value: 96.68%); type: functional; settings: read-out: Activity
MV4-11 [23] = test: Antiproliferative activity against human MV4-11 cells assessed as growth inhibition at 0.4 uM measured after 72 hrs in presence of 0.2 uM of vorinostat by CellTiterGlo assay; type: functional; settings: read-out: GI
MV4-11 [24] = test: Antiproliferative activity against human MV4-11 cells assessed as growth inhibition at 0.2 uM measured after 72 hrs in presence of 0.5 uM of vorinostat by CellTiterGlo assay; type: functional; settings: read-out: GI

SMILES: Cc1c(F)c(N)cc(C(=O)Nc2cc(-c3ccc(C(=O)NCc4ccc(/C=C/C(=O)NO)cc4)cc3)ccc2N2CCN(C)CC2)c1Cl
- Activity (MV4-11 [1]): 1.84%
- Activity (MV4-11 [2]): 11.03%
- Activity (MV4-11 [3]): 19.42%
- Activity [4]: Non-toxic
- inhibition in vivo at 20 mg/kg (MV4-11 [5]): 69%

SMILES: Cc1c(F)c(N)cc(C(=O)Nc2cc(-c3ccc(C(=O)N4CCOCC4)cc3)ccc2N2CCN(C)CC2)c1Cl
- inhibition of growth at 2 µM (MV4-11 [6]): 89.4%
- inhibition of growth at 1 µM (MV4-11 [7]): 57.4%
- inhibition of growth at 0.2 µM (MV4-11 [8]): 45%
- viability at 0.4 µM (MV4-11 [9]): 26.1%
- inhibition of growth at 0.5 µM (MV4-11 [10]): 91.1%
- inhibition of growth at 0.1 µM (MV4-11 [11]): 73.6%
- Activity (MV4-11 [12]): 1.48%
- inhibition of growth at 0.4 µM (MV4-11 [13]): 55%
- inhibition of growth at 2 µM (MV4-11 [14]): 72.3%
- inhibition of growth at 2 µM (MV4-11 [15]): 55.9%
- Activity (MV4-11 [16]): 3.05%
- inhibition of growth at 0.2 µM (MV4-11 [17]): 60.3%
- inhibition of growth at 0.1 µM (MV4-11 [18]): 19.4%
- inhibition of growth at 0.5 µM (MV4-11 [19]): 58.9%
- inhibition of growth at 0.05 µM (MV4-11 [20]): 45.1%
- Activity (MV4-11 [21]): 1.08%
- viability at 0.2 µM (MV4-11 [22]): 57%
- inhibition of growth at 0.4 µM (MV4-11 [23]): 59.3%
- inhibition of growth at 0.2 µM (MV4-11 [24]): 74.7%

Reference: ChEMBL document CHEMBL6096706, “Discovery of WDR5-MLL1 and HDAC Dual-Target Inhibitors for the Treatment of Acute Myeloid Leukemia” (J Med Chem, 2025)
